target: SGK1 (human) (UniProt O00141); assay: Flashplate
Sequence (O00141 whole entry, looked up): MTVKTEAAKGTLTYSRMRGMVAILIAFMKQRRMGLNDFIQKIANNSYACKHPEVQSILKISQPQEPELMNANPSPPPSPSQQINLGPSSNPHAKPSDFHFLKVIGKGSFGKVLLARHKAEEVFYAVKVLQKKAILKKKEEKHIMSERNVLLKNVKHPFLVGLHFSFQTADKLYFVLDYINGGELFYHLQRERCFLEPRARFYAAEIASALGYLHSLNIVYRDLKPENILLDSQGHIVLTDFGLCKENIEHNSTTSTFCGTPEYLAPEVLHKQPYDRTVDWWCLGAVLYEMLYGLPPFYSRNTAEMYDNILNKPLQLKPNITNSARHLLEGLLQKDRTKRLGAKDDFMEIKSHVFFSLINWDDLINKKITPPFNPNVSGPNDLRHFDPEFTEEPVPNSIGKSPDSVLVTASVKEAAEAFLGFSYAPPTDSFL

Structure (SMILES) | Ki [µM]
N[C@H](COc1cncc(-c2cc3cnccc3s2)c1)Cc1c[nH]c2ccccc12 | 1
O=C(Nc1ccc2[nH]ncc2c1)c1ccc(Cl)cc1 | 7.94
N[C@H](COc1cncc(/C=C/c2ccncc2)c1)Cc1ccccc1 | > 10
Cc1n[nH]c2ccc(-c3cncc(OC[C@@H](N)Cc4cccc(Cl)c4)c3)cc12 | 0.158
N[C@@H](Cc1cccc2ccccc12)C(=O)Nc1cncc(/C=C/c2ccncc2)c1 | > 10
CN1CCN(Cc2ccc3c(c2)Cc2c(-c4csc(C#CCOCC5CC5)c4)n[nH]c2-3)CC1 | > 10
Clc1cc(-c2c[nH]c3ncccc23)cc(NCc2ccccc2)n1 | 0.398
Cc1cccc(C2(c3cccc(C)c3)CC2C(=O)Nc2ccncc2)c1 (stereo not given) | > 10
NCCOc1cccc(Nc2ccnc(N)n2)c1 | > 10
CCCCNC1=NS(=O)N=C1Nc1ccc(F)cc1 (stereo not given) | > 10
Cc1csc(NC(=O)c2sc3nc(-c4ccncc4)ccc3c2N)n1 | > 10
COc1cccc(CNC(=O)c2cc3c(-c4ccccc4)n[nH]c3s2)c1 | 0.794
CCCC(=O)Nc1cccc(-c2nc(Nc3ccc4[nH]ncc4c3)c3cc(OCCN4CCCC4)ccc3n2)c1 | 0.501
CC(C)(CO)c1nnc2ccc(-c3c(-c4ccc(F)cc4F)nc4n3CCC4)nn12 | > 10
N[C@H](COc1cncc(-c2ccc(F)cc2)c1)Cc1c[nH]c2ccccc12 | > 10
CN(C)CC(C)(C)CNc1nccc(-c2c(-c3ccc(F)cc3)nc3occn23)n1 | > 10
CSc1c[nH]c2ncnc(NCCCO)c12 | > 10
CN1CCN(CCCNc2cccc(-c3nc4c(C(N)=O)cccc4[nH]3)n2)CC1 | > 10
Cc1nn(C)c2c1c(=O)c1cc(Cl)ccc1n2OCC(C)C | > 10
O=C(O)c1c2c(nc3ccccc13)C(=C1CCCC1)CC2 | > 10
C[C@@H](N)C1CCC(C(=O)Nc2ccncc2)CC1 (stereo not given in full) | > 10
Nc1n[nH]c2cccc(-c3ccc(NC(=O)Nc4cc(CO)ccc4F)cc3)c12 | 0.398

Structure (SMILES) | Ki [µM]
Cc1nc2c(sc3c(Br)ccc(Cl)c32)c(=O)o1 | > 10
O=C(N[C@H](CO)c1ccccc1)N1CC=C(c2c[nH]c3ncccc23)CC1 | 0.398
COc1cc(/C=C2\S/C(=N\c3ccccc3)NC2=O)ccc1O | 5.01
Cc1cc(Cl)ccc1NC(=S)NNC(=O)C(O)(c1ccccc1)c1ccccc1 | 6.31
Cc1cccc(NC(=O)Nc2ccc(-c3csc4ncnc(N)c34)cc2)c1 | > 10
Cc1ccc(NC(=O)Nc2ccc(NC(=O)c3csc4ncnc(N)c34)cc2)cc1 | > 10
NC(=O)c1cccc2[nH]c(-c3ccc(C4CCCNC4)cc3F)nc12 (stereo not given) | > 10
Cc1cccc(NC(=O)Nc2ccc(-c3csc4c(C#CCNS(C)(=O)=O)cnc(N)c34)cc2)c1 | 10
O=C(Nc1cccc(C(F)(F)F)n1)Nc1ccnc2c(C(F)(F)F)cccc12 | > 10
Cc1cccc(NC(=O)Nc2ccc(-c3csc4c(C#Cc5cccnc5)cnc(N)c34)cc2)c1 | > 10
Oc1ccc(-c2nc(-c3ccc(F)cc3)c(-c3ccncc3)[nH]2)cc1 | > 6.31
C(=N\Nc1nc2ccccc2[nH]1)/c1c[nH]c2ccccc12 | > 10
NC(=O)c1cc2c(-c3ccc(Br)c(F)c3F)cncc2s1 | 0.398
Clc1csc2ncnc(Nc3ccccc3)c12 | > 10
Fc1ccc(-c2nc(-c3ccc(F)cc3)c(-c3ccncc3)[nH]2)cc1 | > 10
C[C@@H](O)Cn1cc(-c2cnc(N)c3c(-c4ccc(NC(=O)Nc5cccc(F)c5)cc4)csc23)cn1 | 2.51
N#Cc1ccc(NC(=O)Nc2ccnc3cc(C(F)(F)F)ccc23)nc1 | > 10
O=C(Nc1n[nH]c2ccc(-c3cn(Cc4ccccc4)nn3)cc12)c1cccc(F)c1 | 0.1
Cc1cc(C)c2oc(Nc3ccc(-c4cccc(C(N)=O)c4N)cc3F)nc2c1 | > 10
Cc1ccccc1NC(=O)Nc1ccc(-c2coc3ncnc(N)c23)cc1 | 2.51
Cc1nccn2c(-c3ccnc(NCCC(C)(C)O)n3)c(-c3ccc(F)cc3F)nc12 | > 10
Cc1n[nH]c2ccc(-c3cncc(OC[C@@H](N)Cc4cccc(OC(F)(F)F)c4)c3)cc12 | 0.316

Structure (SMILES) | Ki [µM]
Nc1nccc(-c2c(-c3ccc(F)cc3)ncn2C2CCNCC2)n1 | 6.31
Nc1nccn2c(C3CC(CN4CCCC4)C3)nc(-c3cccc(OCc4ccccc4)c3)c12 (stereo not given) | > 10
Cc1ccccc1-c1c(C(=O)O)n(CCCOc2cccc3ccccc23)c2ccccc12 | > 10
NC(=O)c1ccc(N[C@H]2CCCC[C@H]2N)nc1Nc1cccc(Cl)c1 | > 6.31
CCCOc1nc(NC(C)=O)cc(N)c1C#N | > 10
COc1ccc(C(=O)Nc2cnc3[nH]cc(-c4ccccc4)c3c2)cc1 | 10
Cc1cccc(NC(=O)Nc2ccc(-c3ccc4nccnc4c3N)cc2)c1 | > 10
CCCS(=O)(=O)Nc1ccc(-c2ccc3[nH]nc(N)c3c2)cc1 | 0.316
N#Cc1ccc(-c2n[nH]c3c2Cc2ccc(OCCCCN4CCOCC4)cc2-3)cn1 | > 10
CN1CC[C@H]1COc1cncc(CCc2ccncc2)c1 | > 10
CN(C(=O)C1CCCCC1)c1ccc2c(c1)nc(NC(=O)c1ccc(C#N)cc1)n2CCC(N)=O | > 10
CC(C)(O)Cc1nnc2ccc(-c3c(-c4ccc(F)cc4F)nc4occn34)nn12 | > 10
O=C(NS(=O)(=O)c1ccc(NCCSc2ccc(O)cc2)c([N+](=O)[O-])c1)c1ccc(-c2ccc(F)cc2)cc1 | > 10
Cc1ccccc1NC(=O)Nc1ccc2c(c1)CCc1sc3ncnc(N)c3c1-2 | > 10
NC(=O)c1cc2c(-c3ccc(F)cc3F)cncc2s1 | 1.26
COc1cccc(NC(=O)c2cnn3c(-c4ccccc4)ccnc23)c1 | > 10
Nc1n[nH]c2cccc(-c3ccc(Br)cc3)c12 | 5.01
Cc1n[nH]c2ncc(C#N)c(-c3ccccc3)c12 | 3.98
Nc1ncnc2scc(-c3ccc(NC(=O)Nc4cc(C(F)(F)F)ccc4F)cc3)c12 | 3.16
O=C(NCCCCCCNC(=O)Nc1cccnc1)Nc1cccnc1 | > 10
COc1cc(-c2ccc3c(c2)Nc2ccc(CCOc4ccc(N5CCOCC5)cc4)cc2NC3=O)ccc1CC#N | > 10
Nc1n[nH]c2cccc(-c3ccc(NC(=O)Nc4ccccc4)cc3)c12 | 1

Structure (SMILES) | Ki [µM]
COc1cc(C=O)c(Cl)cc1NC(=O)Nc1cnc(C#N)cn1 | > 10
CCCOc1cccc([C@@H](C)NC(=O)c2ccc(-c3ccncc3)cc2)c1 | 3.98
O=C(NCc1ccc(Br)cc1)Nc1ccc2[nH]ncc2c1 | 1
c1ccc(COc2ccc(Nc3ncnc4ccccc34)cc2)cc1 | > 10
COc1cccc([C@@H](C)NC(=O)c2cnc(-c3ccncc3)s2)c1 | 0.501
CN(C)CC(=O)Nc1n[nH]c2ccc(-c3cn(Cc4ccccc4)nn3)cc12 | 2
Nc1ncc(-c2ccncc2)c2scc(-c3ccc(NC(=O)Nc4cc(C(F)(F)F)ccc4F)cc3)c12 | 0.631
CCn1c2cc(Cl)c(F)cc2c(=O)c2c(=O)o[nH]c21 | > 10
O=C(Nc1cnccn1)Nc1ccnc2ccccc12 | 1.26
NC(=O)c1cccc2[nH]c(-c3cccc(NCCN4CCCC4)n3)nc12 | > 10
OCCNc1cc2cc(-c3ccsc3)ccc2cn1 | 0.501
CSc1ccc2nc3c(c(Cl)c2c1)CCNC3=O | > 10
NC(=O)c1cc(-c2ccnc(N)n2)[nH]c1-c1ccc(Cl)cc1F | 3.98
CCNNc1cc(C)c(C#N)c2nc3ccccc3n12 | > 10
Nc1nonc1-n1nnc(C(=O)N/N=C/c2cccs2)c1-c1ccccc1 | > 10
O=C(CO)N1CCC(c2[nH]nc(-c3ccc(Cl)cc3F)c2-c2ccncn2)CC1 | > 10
O=C1CCCN1Cc1ccc2c(c1)[nH]c(=O)c1cccn12 | > 10
Cc1cc(Nc2cc(N3CCN(C)CC3)nc(/C=C/c3ccccc3)n2)n[nH]1 | > 10
Cc1cccc(NC(=O)Nc2ccc(-c3csc4c(-c5cnn(C[C@H](C)O)c5)cnc(N)c34)cc2)c1 | > 10
Brc1ccc2c(c1)-c1[nH]ncc1C2 | > 10
COc1cc(-c2ccc3c(c2)Nc2ccc(CCOc4ccc(N5CCOCC5)cc4)cc2NC3=O)ccc1OCC(O)CO (stereo not given) | > 10
O=C(Nc1n[nH]c2nc3ccccc3cc12)c1ccncc1 | 1.58

Structure (SMILES) | Ki [µM]
C/C(=N/NC(=N)N)c1cc(NC(=O)c2cccc(C(=O)Nc3cc(/C(C)=N\NC(=N)N)cc(/C(C)=N/NC(=N)N)c3)c2)cc(/C(C)=N/NC(=N)N)c1 | 1.26
Cc1ccc(C(=O)Nc2ccon2)cc1Nc1ncnc2c1cnn2-c1ccccc1 | > 10
COc1cc(OC)c(Nc2ccc3nnc(-c4ccccc4)n3n2)cc1Cl | > 10
CCCn1cc(-c2cnc(N)c3c(-c4ccc(NC(=O)Nc5cccc(F)c5)cc4)csc23)cn1 | > 10
O=C(Nc1cccc(N2CCOCC2)n1)Nc1ccnc2c(C(F)(F)F)cccc12 | > 10
COc1cc(Nc2ncc([N+](=O)[O-])c(Nc3ccccc3C(N)=O)n2)cc(OC)c1OC | 0.2
COc1cc(C)c(Cl)cc1NC(=O)Nc1cnc(C#N)cn1 | > 10
CNC(=O)c1ccccc1Sc1ccc2c(/C=C/c3ccccn3)n[nH]c2c1 | > 10
Cc1ccc(C(=O)Nc2c(C#N)sc3ccc(Cl)c(Cl)c23)cc1 | > 10
CCN(CC)CCOc1ccc(-c2nc3c(C(N)=O)cccc3[nH]2)cc1 | > 10
CN1CCN(c2cccc(Nc3nccc(-c4c(C(N)=O)nc5ccccn45)n3)c2)CC1 | > 10
COc1ccc(-c2cnc3c(Br)cnn3c2)cc1 | 3.16
Cn1c(=O)c(Oc2ccc(F)cc2F)cc2cnc(NC3CCOCC3)nc21 | > 10
OCCCn1cnc(-c2ccccc2)c1-c1ccncc1 | > 10
Nc1n[nH]c2ccc(-c3nnn(Cc4ccccc4)c3-c3ccccc3)cc12 | 0.631
C/C(=N/NC(=N)N)c1cc(NC(=O)NCCCCCCNC(=O)Nc2cc(/C(C)=N\NC(=N)N)cc(/C(C)=N/NC(=N)N)c2)cc(/C(C)=N/NC(=N)N)c1 | 3.16
Cc1cccc(NC(=O)Nc2ccc(-c3csc4c(-c5cnn(C[C@@H](C)O)c5)cnc(N)c34)cc2)c1 | > 10
O=C1Cc2c([nH]c3ccc(Br)cc23)-c2ncccc2N1 | > 10
CN(C(=O)C1CCCCC1)c1ccc2c(c1)nc(NC(=O)c1ccc(C#N)cc1)n2C | > 10
Clc1cc(-c2c[nH]c3ncccc23)nc(NC2CCCCC2)n1 | 0.794
O=C(NC(CO)c1cc(Cl)cc(Cl)c1)c1ccc(-c2ccncc2)cc1 (stereo not given) | 3.98
Cc1n[nH]c2c1C(c1ccccc1Cl)C(C#N)=C(N)O2 (stereo not given) | > 10
